Test results as given in US12234221B2, “Pyridine carboxamide compounds for inhibiting NAV1.8” (Lieber Institute, Inc., priority 2018, dated 2025).
pIC50: −log10 of the molar value.

Legend:
Nav 1.8 [1] = biological target: T1, Nav 1.8 (Mus musculus, UniProt Q6QIY3); conditions: mouse model of MS; cited from earlier work
T1 construct: host or cells: mouse, in vivo

Nav 1.8 [2] = conditions: PTHS models (ex vivo cell model, rodent models); cited from earlier work
[3] = biological target: T2, human Nav1.8 (hNav1.8) ion channel (Homo sapiens, UniProt Q9Y5Y9); assay: Nav1.8 channel inhibition, estimated IC50 (one or more of: fluorescence inhibition assay, PatchXpress, IonFlux HT automated patch clamp); assay type: cell-based; conditions: HEK293 cells stably expressing hNav1.8; method used per compound not stated; read-out: Activity range (estimated IC50)
T2 construct: expressed in transfected cells; host or cells: HEK293
Method in brief: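 HEK293 cells stably expressing hNav1.8 with β1/β2 subunits; IC50 from the fluorescence assay and/or automated whole-cell patch clamp (PatchXpress, IonFlux HT). Fluorescence: ANG-2 Na dye, 5 min compound preincubation (0.02–5 μM, 1% DMSO) with 30 μM ouabain, stimulation by 10 μM deltamethrin, peak signal fit logistically. PatchXpress: holding potential reset to Vhalf, inhibition normalized to control/washout currents.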

T2 sequence (Q9Y5Y9 whole entry): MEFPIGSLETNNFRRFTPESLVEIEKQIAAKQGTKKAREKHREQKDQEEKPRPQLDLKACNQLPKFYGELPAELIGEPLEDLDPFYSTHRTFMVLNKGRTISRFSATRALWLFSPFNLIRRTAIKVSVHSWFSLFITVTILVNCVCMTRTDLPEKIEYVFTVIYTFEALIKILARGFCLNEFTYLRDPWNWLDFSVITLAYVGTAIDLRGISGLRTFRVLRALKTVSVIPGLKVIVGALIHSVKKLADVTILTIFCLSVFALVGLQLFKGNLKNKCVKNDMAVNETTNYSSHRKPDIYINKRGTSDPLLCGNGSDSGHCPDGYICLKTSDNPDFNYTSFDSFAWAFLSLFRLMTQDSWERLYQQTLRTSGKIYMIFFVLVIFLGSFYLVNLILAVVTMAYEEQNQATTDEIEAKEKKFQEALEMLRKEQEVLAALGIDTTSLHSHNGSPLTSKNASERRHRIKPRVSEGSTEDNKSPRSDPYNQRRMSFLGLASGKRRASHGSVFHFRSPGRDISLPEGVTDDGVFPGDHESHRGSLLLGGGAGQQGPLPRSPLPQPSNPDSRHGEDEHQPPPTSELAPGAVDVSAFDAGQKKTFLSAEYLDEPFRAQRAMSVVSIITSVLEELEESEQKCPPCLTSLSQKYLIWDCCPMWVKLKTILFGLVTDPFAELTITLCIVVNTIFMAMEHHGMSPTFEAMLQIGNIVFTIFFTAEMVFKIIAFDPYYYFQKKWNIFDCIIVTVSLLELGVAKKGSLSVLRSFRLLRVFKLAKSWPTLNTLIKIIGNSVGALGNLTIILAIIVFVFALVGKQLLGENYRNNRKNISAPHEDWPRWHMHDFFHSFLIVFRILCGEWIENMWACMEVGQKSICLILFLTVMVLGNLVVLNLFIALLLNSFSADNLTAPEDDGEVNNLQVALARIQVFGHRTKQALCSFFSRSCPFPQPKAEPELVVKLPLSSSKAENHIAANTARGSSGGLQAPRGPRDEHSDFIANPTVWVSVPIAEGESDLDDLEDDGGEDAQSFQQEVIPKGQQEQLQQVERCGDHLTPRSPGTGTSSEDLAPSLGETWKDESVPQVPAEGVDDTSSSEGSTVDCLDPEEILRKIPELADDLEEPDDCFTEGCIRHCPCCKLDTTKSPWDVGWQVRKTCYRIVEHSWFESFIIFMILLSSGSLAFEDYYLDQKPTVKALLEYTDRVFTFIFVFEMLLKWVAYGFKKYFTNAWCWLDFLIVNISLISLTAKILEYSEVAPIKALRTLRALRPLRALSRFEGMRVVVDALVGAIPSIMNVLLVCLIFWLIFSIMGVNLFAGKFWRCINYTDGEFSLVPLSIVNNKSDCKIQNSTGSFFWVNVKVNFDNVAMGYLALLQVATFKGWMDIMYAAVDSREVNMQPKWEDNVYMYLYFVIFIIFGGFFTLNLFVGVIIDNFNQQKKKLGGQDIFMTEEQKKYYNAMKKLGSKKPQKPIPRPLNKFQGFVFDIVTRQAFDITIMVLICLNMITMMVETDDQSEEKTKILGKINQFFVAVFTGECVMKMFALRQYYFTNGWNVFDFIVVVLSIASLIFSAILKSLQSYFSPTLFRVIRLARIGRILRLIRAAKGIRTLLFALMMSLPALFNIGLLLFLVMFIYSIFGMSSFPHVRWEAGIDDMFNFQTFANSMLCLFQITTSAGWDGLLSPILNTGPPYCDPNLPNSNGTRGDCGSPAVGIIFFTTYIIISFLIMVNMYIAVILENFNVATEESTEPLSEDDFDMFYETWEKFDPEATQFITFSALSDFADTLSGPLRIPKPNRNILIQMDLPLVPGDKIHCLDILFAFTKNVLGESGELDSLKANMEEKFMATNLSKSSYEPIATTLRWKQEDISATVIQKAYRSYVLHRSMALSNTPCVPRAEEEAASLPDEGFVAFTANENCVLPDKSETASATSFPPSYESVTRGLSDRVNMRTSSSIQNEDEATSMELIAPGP
T1 sequence (Q6QIY3 whole entry): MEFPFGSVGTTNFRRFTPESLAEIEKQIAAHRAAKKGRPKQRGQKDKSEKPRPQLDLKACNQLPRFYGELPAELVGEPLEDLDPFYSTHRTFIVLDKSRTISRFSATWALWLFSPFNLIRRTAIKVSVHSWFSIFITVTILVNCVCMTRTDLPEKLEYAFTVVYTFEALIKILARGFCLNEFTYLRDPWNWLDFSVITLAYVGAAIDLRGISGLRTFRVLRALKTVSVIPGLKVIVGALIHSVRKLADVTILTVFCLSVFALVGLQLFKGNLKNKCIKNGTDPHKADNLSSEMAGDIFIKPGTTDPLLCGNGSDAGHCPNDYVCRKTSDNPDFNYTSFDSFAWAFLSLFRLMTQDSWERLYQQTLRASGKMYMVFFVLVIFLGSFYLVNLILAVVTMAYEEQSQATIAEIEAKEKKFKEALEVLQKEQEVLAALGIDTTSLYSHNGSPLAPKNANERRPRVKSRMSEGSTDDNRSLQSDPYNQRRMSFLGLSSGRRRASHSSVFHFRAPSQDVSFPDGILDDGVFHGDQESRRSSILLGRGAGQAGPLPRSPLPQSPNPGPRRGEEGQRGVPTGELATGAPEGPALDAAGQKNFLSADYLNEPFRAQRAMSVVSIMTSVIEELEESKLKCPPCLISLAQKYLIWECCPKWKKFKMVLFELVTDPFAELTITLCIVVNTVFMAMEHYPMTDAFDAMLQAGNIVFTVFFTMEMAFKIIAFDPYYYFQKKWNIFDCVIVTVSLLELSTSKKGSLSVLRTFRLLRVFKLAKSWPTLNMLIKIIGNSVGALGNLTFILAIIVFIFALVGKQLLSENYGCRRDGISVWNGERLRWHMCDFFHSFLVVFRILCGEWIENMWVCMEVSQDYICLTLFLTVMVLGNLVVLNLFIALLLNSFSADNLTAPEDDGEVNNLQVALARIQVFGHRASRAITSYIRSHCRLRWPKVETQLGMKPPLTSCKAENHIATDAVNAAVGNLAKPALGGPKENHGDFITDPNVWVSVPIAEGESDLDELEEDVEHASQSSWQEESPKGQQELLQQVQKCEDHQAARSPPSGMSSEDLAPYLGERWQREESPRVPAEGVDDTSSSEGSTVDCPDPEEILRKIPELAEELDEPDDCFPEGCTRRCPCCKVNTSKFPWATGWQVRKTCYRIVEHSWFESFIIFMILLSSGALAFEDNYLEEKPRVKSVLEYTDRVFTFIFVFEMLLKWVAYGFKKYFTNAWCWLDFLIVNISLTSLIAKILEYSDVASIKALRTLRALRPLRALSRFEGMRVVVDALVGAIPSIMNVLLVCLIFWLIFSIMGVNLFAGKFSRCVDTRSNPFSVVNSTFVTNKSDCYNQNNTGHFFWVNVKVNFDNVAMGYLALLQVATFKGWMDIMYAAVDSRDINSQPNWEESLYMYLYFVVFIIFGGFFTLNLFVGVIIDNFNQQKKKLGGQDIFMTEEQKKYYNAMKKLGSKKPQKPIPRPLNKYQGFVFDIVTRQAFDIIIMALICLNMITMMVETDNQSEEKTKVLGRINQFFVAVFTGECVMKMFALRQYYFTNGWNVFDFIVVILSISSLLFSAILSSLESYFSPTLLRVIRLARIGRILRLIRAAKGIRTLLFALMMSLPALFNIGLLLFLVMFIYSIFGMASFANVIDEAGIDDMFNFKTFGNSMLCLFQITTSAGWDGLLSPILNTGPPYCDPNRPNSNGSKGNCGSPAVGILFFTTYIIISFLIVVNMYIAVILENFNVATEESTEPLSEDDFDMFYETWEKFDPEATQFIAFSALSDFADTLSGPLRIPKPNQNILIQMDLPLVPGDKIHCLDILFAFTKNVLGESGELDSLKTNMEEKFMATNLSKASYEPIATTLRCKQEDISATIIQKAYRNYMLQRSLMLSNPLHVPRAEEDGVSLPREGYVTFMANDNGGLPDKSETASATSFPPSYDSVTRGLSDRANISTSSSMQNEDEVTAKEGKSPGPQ

Row | pIC50 [3] | Compound | further results
1 |  | CNC(=O)c1ccc(-c2cc(Cl)cc(Cl)c2Cl)c(N)n1 [PF 01247324, N-methyl-6-amino-5-(2,3,5-trichlorophenyl)pyridine-2-carboxamide] | effect on cerebellar deficits (Nav 1.8 [1]): reverses cerebellar deficits
2 |  | COc1cc(NC(=O)c2ccc(-c3ccc(Cl)cc3)o2)cc(OC)c1 [Example A-803467, 5-4(-chlorophenyl)-N-(3,5-dimethoxyphenyl)furan-2-carboxamide] | effect on excitability phenotypes (Nav 1.8 [2]): can rapidly reverse some of the excitability phenotypes
3 |  | COc1ccc(Cl)c(-c2ccc(NC(=O)c3ccnn3C)nc2N)c1 [PF 4531083, N-[6-amino-5-(2-chloro-5-methoxyphenyl)pyridin-2-yl]-1-methyl-1H-pyrazole-5-carboxamide] | effect on excitability phenotypes (Nav 1.8 [2]): can rapidly reverse some of the excitability phenotypes
4 | < 6.00 | COc1ccc(Oc2cc(C(F)(F)F)ncc2C(=O)Nc2cccc(S(C)(=N)=O)c2)c(OC)c1 (stereo not drawn) [Example 102, 4-(2,4-dimethoxyphenoxy)-N-[3-(methylsulfonimidoyl)phenyl]-6-(trifluoromethyl)pyridine-3-carboxamide] | 
5 | > 6.30 | COc1cc(F)ccc1Oc1cc(C(F)(F)F)ncc1C(=O)Nc1cccc([S+](C)[O-])c1 (stereo not drawn) [Example 68, 4-(4-fluoro-2-methoxy-phenoxy)-N-(3-methylsulfinylphenyl)-6-(trifluoromethyl)pyridine-3-carboxamide] | 
6 | < 6.00 | COc1cc(F)ccc1Oc1ncc(C(F)(F)F)cc1C(=O)Nc1cccnc1 [Example 4, 2-(4-fluoro-2-methoxy-phenoxy)-N-(3-pyridyl)-5-(trifluoromethyl)pyridine-3-carboxamide] | 
7 | < 6.00 | CS(=O)(=O)c1cccc(NC(=O)c2cc(C(F)(F)F)cnc2Oc2ccccc2)c1 [Example 41, N-(3-methylsulfonyl-phenyl)-2-phenoxy-5-(trifluoromethyl)pyridine-3-carboxamide] | 
8 | < 6.00 | CS(=O)(=O)c1cccc(NC(=O)c2cc(C(F)(F)F)cnc2Oc2cccc3scnc23)c1 [Example 58, 2-(1,3-benzothiazol-4-yloxy)-N-(3-methylsulfonyl-phenyl)-5-(trifluoromethyl)pyridine-3-carboxamide] | 
9 | < 6.00 | COc1cc(F)ccc1Oc1ncc(C(F)(F)F)cc1C(=O)Nc1ccc2ncsc2c1 [Example 1, N-(1,3-benzothiazol-6-yl)-2-(4-fluoro-2-methoxy-phenoxy)-5-(trifluoromethyl)pyridine-3-carboxamide] | 
10 | < 6.00 | COc1cc(F)ccc1Oc1nc(C)ccc1C(=O)Nc1cccc(S(C)(=O)=O)c1 [Example 117, 2-(4-fluoro-2-methoxy-phenoxy)-6-methyl-N-(3-methylsulfonylphenyl)pyridine-3-carboxamide] | 
11 | > 6.30 | CS(=O)(=O)c1cccc(NC(=O)c2cc(C(F)(F)F)cnc2Oc2ccc(OC(F)(F)F)c(F)c2)c1 [Example 40, 2-[3-fluoro-4-(trifluoromethoxy)phenoxy]-N-(3-methylsulfonyl-phenyl)-5-(trifluoromethyl)pyridine-3-carboxamide] | 
12 | > 6.30 | COc1cc(F)ccc1Oc1nc(C(F)(F)F)ccc1C(=O)Nc1cccc(S(C)(=O)=O)c1 [Example 66, 2-(4-fluoro-2-methoxy-phenoxy)-N-(3-methylsulfonylphenyl)-6-(trifluoromethyl)pyridine-3-carboxamide] | 
13 | > 6.30 | COc1ccc(Oc2ncc(C(F)(F)F)cc2C(=O)Nc2cccc(S(C)(=O)=O)c2)c(OC)c1 [Example 54, 2-(2,4-dimethoxyphenoxy)-N-(3-methylsulfonyl-phenyl)-5-(trifluoromethyl)pyridine-3-carboxamide] | 
14 | < 6.00 | COc1cc(NC(=O)c2cc(C(F)(F)F)cnc2Oc2ccc(F)cc2OC)ccn1 [Example 15, 2-(4-fluoro-2-methoxy-phenoxy)-N-(2-methoxy-4-pyridyl)-5-(trifluoromethyl)pyridine-3-carboxamide] | 
15 | > 6.30 | CS(=O)(=O)c1cccc(NC(=O)c2cc(C(F)(F)F)cnc2Oc2ccc(F)cc2Cl)c1 [Example 36, 2-(2-chloro-4-fluoro-phenoxy)-N-(3-methylsulfonyl-phenyl)-5-(trifluoromethyl)pyridine-3-carboxamide] | 
16 | 6.00 to 6.30 | CN(C)S(=O)(=O)c1cccc(NC(=O)c2cnc(C(F)(F)F)cc2Oc2ccc(OC(F)(F)F)cc2Cl)c1 [Example 76, 4-[2-chloro-4-(trifluoromethoxy)phenoxy]-N-[3-(dimethylsulfamoyl)phenyl]-6-(trifluoromethyl)pyridine-3-carboxamide] | 
17 | < 6.00 | Cc1cc(F)ccc1Oc1ncc(C(F)(F)F)cc1C(=O)Nc1ccc[n+]([O-])c1 [Example 133, 2-(4-fluoro-2-methyl-phenoxy)-N-(1-oxidopyridin-1-ium-3-yl)-5-(trifluoromethyl)pyridine-3-carboxamide] | 
18 | > 6.30 | O=C(Nc1ccc[n+]([O-])c1)c1cnc(C(F)(F)F)cc1Oc1ccc(OC(F)(F)F)cc1 [Example 87, N-(1-oxidopyridin-1-ium-3-yl)-4-[4-(trifluoromethoxy)phenoxy]-6-(trifluoromethyl)pyridine-3-carboxamide] | 
19 | < 6.00 | COc1ccc(Oc2ncc(C(F)(F)F)cc2C(=O)Nc2ccnnc2)c(Cl)c1 [Example 65, 2-(2-chloro-4-methoxy-phenoxy)-N-pyridazin-4-yl-5-(trifluoromethyl)pyridine-3-carboxamide] | 
20 | < 6.00 | COc1cc(F)ccc1Oc1ncc(Br)cc1C(=O)Nc1cccc(S(C)(=O)=O)c1 [Example 111, 5-bromo-2-(4-fluoro-2-methoxy-phenoxy)-N-(3-methylsulfonylphenyl)pyridine-3-carboxamide] | 
21 | < 6.00 | Cc1cccc(C)c1Oc1ncc(C(F)(F)F)cc1C(=O)Nc1cccc(S(C)(=O)=O)c1 [Example 33, 2-(2,6-dimethylphenoxy)-N-(3-methylsulfonylphenyl)-5-(trifluoromethyl)pyridine-3-carboxamide] | 
22 | > 6.30 | CS(=O)(=O)c1ccc(F)c(NC(=O)c2cnc(C(F)(F)F)cc2Oc2ccc(OC(F)(F)F)cc2Cl)c1 [Example 77, 4-[2-chloro-4-(trifluoromethoxy)phenoxy]-N-(2-fluoro-5-methylsulfonyl-phenyl)-6-(trifluoromethyl)pyridine-3-carboxamide] | 
23 | < 6.00 | COc1cc(F)ccc1Oc1ncc(C(F)(F)F)cc1C(=O)Nc1ccc(C#N)nc1 [Example 7, N-(6-cyano-3-pyridyl)-2-(4-fluoro-2-methoxy-phenoxy)-5-(trifluoromethyl)pyridine-3-carboxamide] | 
24 | > 6.30 | CS(=O)(=O)c1cccc(NC(=O)c2cc(C(F)(F)F)cnc2Oc2ccc(OC(F)(F)F)cc2Cl)c1 [Example 142, 2-[2-chloro-4-(trifluoromethoxy)phenoxy]-N-(3-methylsulfonylphenyl)-5-(trifluoromethyl)pyridine-3-carboxamide] | 
25 | < 6.00 | Cn1cnc(NC(=O)c2cc(C(F)(F)F)cnc2Oc2ccc(OC(F)(F)F)cc2Cl)n1 [Example 170, 2-[2-chloro-4-(trifluoromethoxy)phenoxy]-N-(1-methyl-1,2,4-triazol-3-yl)-5-(trifluoromethyl)pyridine-3-carboxamide] | 
26 | 6.00 to 6.30 | Cc1cc(F)ccc1Oc1ncc(C(F)(F)F)cc1C(=O)Nc1cccc(S(C)(=O)=O)c1 [Example 113, 2-(4-fluoro-2-methyl-phenoxy)-N-(3-methylsulfonylphenyl)-5-(trifluoromethyl)pyridine-3-carboxamide] | 
27 | 6.00 to 6.30 | O=C(Nc1cnns1)c1cc(C(F)(F)F)cnc1Oc1ccc(OC(F)(F)F)cc1Cl [Example 166, 2-[2-chloro-4-(trifluoromethoxy)phenoxy]-N-(thiadiazol-5-yl)-5-(trifluoromethyl)pyridine-3-carboxamide] | 
